One assay deals with WT Col-0 stomata. Nature of the assay: ABA-induced stomata closure in epidermal peels. The assay is classed as cell-based, Arabidopsis thaliana. The conditions noted are these: WT Col-0 epidermal peels; 10 μM ABA; 1 h; vs mock. Here is the method: (§1) Stomata serve an important function in response to water stress, in large part by regulating transpiration rates. As an integral part of water stress, the regulation of stomatal aperture is a mechanism through which ABA-mediated signaling drives the conformational change in the shape of the guard cells, leading to a decrease in aperture size. To determine its putative role in linking ABA and stomata response, the NDR1 function was assayed. Epidermal peels of WT Col-0 and the ndr1 mutant were treated with 10 μM ABA, and after 1 hour, the stomata apertures were measured.

For a further assay, the system named is ndr1 stomata. The experiment in a line: ABA-induced stomata closure in epidermal peels. The assay is classed as cell-based, Arabidopsis thaliana. The conditions noted are these: 10 μM ABA, 1 h, vs mock. Here is the method:
as §1

Assay [1] relates to Arabidopsis thaliana Col-0 seeds. The experiment in a line: Seed germination assay on ABA medium. The assay is classed as in vivo. Here is the method:
(§2) Arabidopsis thaliana Col-0 and ndr1-1 seeds were surface sterilized with 50% bleach and 0.1% Triton X-100 for 20 min, with shaking, and rinsed five times with sterile distilled water under horizontal laminar flow hood. […] Plates were stratified at 4° C. for 4 days, in the dark, before being transferred to a growth chamber at 20° C., with a 12 h/12 h light/dark cycle and a light intensity of 120 μmol photons m^−2 s^−1.
(§3) During seed germination and dormancy assays, the radicle emergence was scored as germination and obvious cotyledons formation with green color was recorded as green cotyledons, respectively. The experiment was repeated five times, independently.

Assay [2] has as its system Arabidopsis thaliana ndr1-1 seeds. Nature of the assay: Seed germination assay on ABA medium. Format: in vivo. The conditions noted are these: ndr1 mutant. Here is the method:
as §2, §3

Each structure is given as a SMILES string.

Turning to `CC1=CC(=O)CC(C)(C)[C@@]1(O)/C=C/C(C)=C\C(=O)O` [ABA, abscisic acid], the figures for the stomata aperture entry with WT Col-0 stomata and in the assay on ndr1 stomata were “significant reduction in aperture” and “did not show a change in aperture”, respectively. Besides, the “germination rate (radicle emergence)” value in assay [1] (0.5 μM ABA) is given as 65%; in assay [1] (1.0 μM ABA) it was 36%; in assay [2] (0.5 μM ABA), 90%; in assay [2] (1.0 μM ABA), 65%.

(Values after US9644213B2, “Method of enhancing plant drought tolerance by expression of NDR1” (BOARD OF TRUSTEES OF MICHIGAN STATE UNIVERSITY, priority 2012, dated 2017).)
